From patent publication US9079854B2 (priority 2007, dated 2015) come the findings set out here.

SMILES strings stand for the structures.

In series [1] the target is T1, human CB1 (hCB1) receptor (Homo sapiens, UniProt P21554).
T1 construct: expressed in transfected cells; host or cells: CHO (Chinese hamster ovary) cells, membranes
The series can be described thus: CB1 binding assay, competitive binding of [3H]CP 55940. The arrangement: % Inhibition of Control Specific Binding CB1: concentration or dose not given beside the values. Put shortly:
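CHO cell membranes expressing human CB1 (25 μg protein) incubated 120 min at 37 °C with 0.5 nM [3H]CP 55940 in Tris-HCl pH 7.4 buffer with MgCl2, EDTA, 0.3% BSA. Filtration and scintillation counting; compound tested at 1 μM, given as percent inhibition of control specific binding.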

Series [2] addresses T2, human CB2 (hCB2) receptor (Homo sapiens, UniProt P34972).
T2 construct: expressed in transfected cells; host or cells: CHO (Chinese hamster ovary) cells, membranes
Nature of the series: CB2 binding assay, competitive binding of [3H]WIN 55212-2. The procedure, abridged: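 CHO cell membranes expressing hCB2 (15 μg protein) incubated 120 min at 37° C with 0.8 nM [3H]WIN 55212-2 in 50 mM HEPES/Tris pH 7.4, 5 mM MgCl2, 2.5 mM EGTA, 0.1% BSA; nonspecific binding with 10 μM WIN 55212-2. Filtration and scintillation counting; compounds at 1 μM, reported as % inhibition of control specific binding.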

For series [3], the system named is tactile allodynia in a spinal nerve ligation neuropathic pain model. Nature of the series: Lumbar 5/6 spinal nerve ligation neuropathic pain model, mechanical paw withdrawal threshold (von Frey). The class given is in vivo, rat. An excerpt:
Neuropathic pain was induced following the methods of Kim and Chung. Kim S H, Chung J M. An experimental model for peripheral neuropathy produced by segmental spinal nerve ligation in the rat. Pain 1992; 50:355-63. Rats were anesthetized and placed prone under a microsurgical apparatus. A midline incision was made on the back, and the right paraspinal muscles were separated from the spinous processes at the L4-S2 levels. The L6 transverse process was carefully removed, and the L4/5 spinal nerves were identified. The L5 nerve was tightly ligated with a 6-0 silk suture. The right L6 spinal nerve was then located just caudal and medial to the sacroiliac junction and tightly ligated with a silk suture.
Two weeks later after spinal nerve ligation, Intrathecal catheters (PE-10 tubing) was inserted into the rats while they were anesthetized with isoflurane, as described by Yaksh and Rudy. Yaksh T L, Rudy T A. Chronic catheterization of the spinal subarachnoid space. Physiology & Behavior 1976; 17:1031-6. A midline incision was made on the back of the neck. The muscle was freed at the attachment to the skull exposing the cisternal membrane. The membrane was opened with a stab blade and an 8.5 cm polyethylene (PE-10) catheter was then inserted through the cisternal opening, and passed carefully and caudally into the intrathecal space at the L1-L3 spinal segments. The end of the catheter was tunneled through the subcutaneous space over the frontal bones, flushed with 10 μl saline, and then plugged with a short length of wire Animal testing was performed 5-7 days after intrathecal catheter placement.
To assess mechanical allodynia, the mechanical paw withdrawal threshold was measured with a series of von Frey hairs (range 0.4-15 g). Rats were placed in elevated Perspex enclosures (28 cm×15 cm×18 cm) with wire mesh bases and given 15-20 min to acclimatize to the testing environment. Rats will be allowed to acclimatize for 30 min in a clear plastic cage with a wire mesh bottom. The calibrated von Frey filament fibers were applied to the hindpaw briefly for 6 seconds to determine the paw withdrawal threshold before and after drug injection (intraperitoneally or intrathecally). A series of von Frey filaments with exponentially incremental stiffness (0.4, 0.7, 1.2, 2.0, 3.6, 5.5, 8.5 and 15 g) were used to measure the 50% threshold for hindpaw withdrawal in awake, unrestrained rats. Chaplan S R, Bach F W, Pogrel J W, Chung J M, Yaksh T L. Quantitative assessment of tactile allodynia in the rat paw. Journal of Neuroscience Methods 1994; 53:55-63. Brisk paw withdrawal from the pressure of a filament gently bent against the plantar paw was defined as a positive response, and absence of withdrawal within 6 s as a negative response. Filaments were touched to the hindpaw in sequential ascending or descending order until the threshold of response is crossed (allowing about 10 s between each increment of the von Frey filaments). Each time the threshold is crossed, the direction of stimulus presentation was reversed and the procedure will be resumed. Four responses were collected after the first threshold detection, and the 50% withdrawal thresholds were interpolated. In cases where response thresholds fell outside the range of detection, 15.00 and 0.25 g were, respectively, assigned for continuous negative or positive responses to the limit of stimuli.
All surgical procedures were performed under deep isoflurane anesthesia in 100% O2. The spinal nerve ligation (SNL) was performed as described previously. Kim, S. H., et al., An Experimental Model for Peripheral Neuropathy Produced by Segmental Spinal Nerve Ligation in the Rat, Pain, 1992, 50:355-63. Briefly, a midline incision above the lumbar spine exposed the left L6 transverse process. The process was then removed, the left L5 and L6 spinal nerves were isolated, and both nerves were tightly ligated with 6-0 silk. […]

T1 sequence (P21554 whole entry): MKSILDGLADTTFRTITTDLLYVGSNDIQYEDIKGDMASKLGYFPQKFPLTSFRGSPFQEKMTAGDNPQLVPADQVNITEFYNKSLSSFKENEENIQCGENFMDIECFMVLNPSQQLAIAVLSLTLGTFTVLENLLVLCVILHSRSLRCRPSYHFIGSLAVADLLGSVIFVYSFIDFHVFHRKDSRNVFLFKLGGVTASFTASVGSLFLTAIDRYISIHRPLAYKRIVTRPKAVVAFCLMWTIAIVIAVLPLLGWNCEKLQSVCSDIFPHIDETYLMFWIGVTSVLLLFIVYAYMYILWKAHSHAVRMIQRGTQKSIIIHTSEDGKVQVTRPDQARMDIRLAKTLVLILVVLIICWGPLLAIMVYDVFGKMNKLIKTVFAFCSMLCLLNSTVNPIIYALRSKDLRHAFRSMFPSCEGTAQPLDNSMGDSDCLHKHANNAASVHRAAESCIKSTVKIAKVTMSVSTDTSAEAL
T2 sequence (P34972 whole entry): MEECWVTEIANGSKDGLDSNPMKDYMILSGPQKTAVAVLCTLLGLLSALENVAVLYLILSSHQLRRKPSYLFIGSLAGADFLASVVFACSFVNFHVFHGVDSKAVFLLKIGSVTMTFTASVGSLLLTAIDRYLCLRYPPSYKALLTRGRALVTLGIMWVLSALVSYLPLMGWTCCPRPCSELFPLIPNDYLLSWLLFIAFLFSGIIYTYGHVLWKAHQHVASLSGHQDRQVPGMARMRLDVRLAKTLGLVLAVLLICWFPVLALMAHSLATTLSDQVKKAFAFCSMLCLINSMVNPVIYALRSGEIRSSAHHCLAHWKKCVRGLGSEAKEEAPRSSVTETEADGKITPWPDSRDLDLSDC

Take `CCCCCCN1C(=O)/C(=N\NC(=O)c2ccccc2)c2ccccc21` [Example 6, Benzoic acid [1-n-hexyl-2-oxo-1,2-dihydro-indol-3-ylidene]-hydrazide]: the “% Inhibition of Control Specific Binding” value in series [1] (CB1, Test Concentration 1.0E−05 (MD)) came out at 96%; in series [2] (CB2, Test Concentration 1.0E−05 (MD)), 93%. The “% of Control Specific Binding 1st” value is reported as 4.5% in series [1] (CB1, Test Concentration 1.0E−05 (MD), 1st determination) and −1.5% in series [2] (CB2, Test Concentration 1.0E−05 (MD), 1st determination). Also, the “% of Control Specific Binding 2nd” value in series [1] (CB1, Test Concentration 1.0E−05 (MD), 2nd determination) was found to be 4.5%; in series [2] (CB2, Test Concentration 1.0E−05 (MD), 2nd determination) it was 15.9%. For the same compound, the “% of Control Specific Binding Mean” value in series [1] (CB1, Test Concentration 1.0E−05 (MD), mean) was determined as 4.5%; in series [2] (CB2, Test Concentration 1.0E−05 (MD), mean), 7.2%. In addition, in series [1] (Table 3, concentration not given), the “% Inhibition of Control Specific Binding CB1” value is 96%. For the same compound, the inhibition at 1 µM in series [1] (at 1 μM, specific binding of [3H]-CP55940, CHO membranes) came to 95.5%; in series [2] (read-out: % inhibition hCB2 receptor, at 1 μM, specific binding of [3H]-WIN55212-2, CHO membranes), 92.8 ± 8.7%. Also, the inhibition at 10 µM in series [1] (at 10 μM, specific binding of [3H]-CP55940) amounted to 95.5%; in series [2] (read-out: % inhibition hCB2 receptor, at 10 μM, specific binding of [3H]-WIN55212-2) it was 92.8 ± 8.7%. In addition, in series [2] (Table 4, concentration not given), the “% Inhibition of Control Specific Binding CB2” value is 93%. Moreover, in series [3] (IP 30 mg/kg, rats), the “duration of peak threshold” value was “one”. Also, the “peak paw withdrawal threshold” value in series [3] (IP 30 mg/kg, rats) is 15 g. The “time of peak effect following administration” value in series [3] (IP 30 mg/kg, rats) is given as not above 5 min. Also, the “effect on mechanical paw withdrawal threshold” value in series [3] (IP administration of 30 mg/kg in 0.5 ml, rats) is reported as “produced an increase in mechanical paw withdrawal threshold”. For the same compound, in series [3] (Rattus norvegicus, ip, rats, spinal nerve ligation, 95% CI, read-out: ED50 of the anti-allodynic effect), the ED50 was 5.9 mg/kg. In series [3] (i.p., rats, spinal nerve ligation, 95% CI), the “ED90 of the anti-allodynic effect” value is on record as 12 (95% CI 9.6-15.5) mg/kg. In addition, the “effect on paw withdrawal threshold” value in series [3] (intrathecal (IT) administration, at 5 min, rats) is listed as “short-lived modest increase in paw withdrawal threshold”. For the same compound, the “behavioral abnormalities or side effects” value in series [3] (rats of the nerve-ligation study) was “No behavioral abnormalities or side effects were noted”.

In general, inhibition refers to how much of the control response was suppressed. What is called ED50 is the midpoint of the dose-response relation.
